# Measurements from patent US6677350B1, “Beta-fluoroethyl thiourea compounds and use” (priority 1999, dated 2004).
# Like-named read-outs stand apart in the source and are kept apart here.
# Experiments:
# [1] = tested on: M. tuberculosis H37Rv (ATCC 27294); assay: In vitro anti-tuberculosis screening, BACTEC 460 radiometric system, percent inhibition of growth; format: cell-based, Mycobacterium tuberculosis; conditions: for inhibition at 12.5 µg/mL: Mycobacterium tuberculosis
# Mtb = assay: Actual minimum inhibitory concentration (MIC), lowest concentration inhibiting 99% of the inoculum; format: cell-based, Mycobacterium tuberculosis; conditions: read-out: minimum inhibitory concentration (MIC)
# [2] = Mtb H37Rv, 12.5 μg/mL, BACTEC 12B medium, read-out: Activity % inhibition at 12.5 μg/mL (chalcones)
# [3] = Mtb H37Rv, drug concentration 12.5 μg/mL, read-out: inhibition of the growth of Mtb
# [4] = Mycobacterium tuberculosis, lowest concentration inhibiting 99% of the inoculum
# [5] = read-out: Activity % inhibition at 12.5 μg/mL (chalcone-like compounds), Mtb H37Rv, 12.5 μg/mL, BACTEC 12B medium
# [6] = read-out: inhibition of the growth of Mtb, Mtb H37Rv, drug concentration 12.5 μg/mL
# [7] = Mtb H37Rv, 12.5 μg/mL, BACTEC 12B medium
# [8] = Mtb H37Rv, drug concentration 12.5 μg/mL
molecule,measurement,setting,value
"O=C(/C=C/c1cccc(I)c1)c1ccccc1O [Compound 40, 3-Iodo-2′-hydroxychalcone]",inhibition at 12.5 µg/mL,[1]; [2],92%
same,inhibition at 12.5 µg/mL,[1]; [3],92%
same,MIC,Mtb; [4],> 35.7 µM
"O=C(C=Cc1ccccc1)c1ccco1 [Compound 56, 1-(Furan-2-yl)-3-phenyl-2-propen-1-one]",inhibition at 12.5 µg/mL,[1]; [5],96%
same,inhibition at 12.5 µg/mL,[1]; [6],96%
same,MIC,Mtb; Mycobacterium tuberculosis,31.5 µM
same,melting point,,94 to 95 °C
1-(5-pyridin-2-yl)-3-(phenanthen-9-yl)-2-propen-1-one [Compound 55],Activity % inhibition at 12.5 μg/mL (chalcone-like compounds),[1]; [7],96%
same,MIC,Mtb; lowest concentration inhibiting 99% of the inoculum,20.2 µM
"O=C(C=Cc1cccnc1)c1ccc(F)cc1 [Compound 53, 1-(4-Fluorophenyl)-3-(pyridin-3-yl)-2-propen-1-one]",inhibition at 12.5 µg/mL,[1]; [5],98%
same,inhibition at 12.5 µg/mL,[1]; [6],98%
same,MIC,Mtb; Mycobacterium tuberculosis,6.8 µM
same,melting point,,126 to 127 °C
"COc1ccc(-c2cc(=O)c3c(OC)c(-c4c(OC)cc5oc(-c6ccc(OC)cc6)cc(=O)c5c4OC)c(OC)cc3o2)cc1 [Compound 151, 6,6″-Biapigenin hexamethylether]",inhibition at 12.5 µg/mL,"[1]; Mtb H37Rv, 12.5 μg/mL, BACTEC 12B medium, read-out: Activity % Inhibition at 12.5 μg/mL (biflavonoids)",96%
same,inhibition at 12.5 µg/mL,[1]; [3],96%
same,MIC,Mtb; [4],> 20.1 µM
same,melting point,,303 to 304 °C
"O=C(/C=C/c1cccc(Cl)c1)c1ccccc1O [Compound 24, 3-Chloro-2′-hydroxychalcone]",inhibition at 12.5 µg/mL,[1]; [2],90%
same,inhibition at 12.5 µg/mL,[1]; [3],90%
same,MIC,Mtb; [4],48.3 µM
same,melting point,,108 to 108.5 °C
"O=C(C=Cc1cc2ccccc2c2ccccc12)c1cccc(O)c1 [Compound 54, 1-(3-Hydroxyphenyl)-3-phenanthren-9-yl-2-propen-1-one]",inhibition at 12.5 µg/mL,[1]; [5],97%
same,inhibition at 12.5 µg/mL,[1]; [6],97%
same,MIC,Mtb; Mycobacterium tuberculosis,19.2 µM
same,melting point,,212 to 213 °C
"COc1ccc(Br)c2c1C(=O)CC(c1ccccc1)O2 (stereo not drawn) [Compound 133, 5-Methoxy-8-bromo-flavanone]",inhibition at 12.5 µg/mL,"[1]; Mtb H37Rv, 12.5 μg/mL, BACTEC 12B medium, read-out: Activity % Inhibition at 12.5 μg/mL (flavanones)",87%
same,inhibition at 12.5 µg/mL,[1]; [3],87%
same,melting point,,134 to 165 °C
"CC(=O)OC[C@H]1O[C@@H](Oc2cc(OC(C)=O)c3c(=O)cc(-c4ccc(OC(C)=O)cc4)oc3c2C2C(=O)c3c(OC(C)=O)cc(OC(C)=O)cc3OC2c2ccc(OC(C)=O)cc2)[C@H](OC(C)=O)[C@@H](OC(C)=O)[C@@H]1OC(C)=O (stereo partly drawn) [Compound 177, Spicataside acetate]",Activity % Inhibition at 12.5 μg/mL (biflavonoids),[1]; [7],0%
COc1cc(OC)c2c(c1)OC(c1cc(OC)c(OC)c(OC)c1)C(Br)(Br)C2=O (stereo not drawn) [Compound 140],Activity % Inhibition at 12.5 μg/mL (flavanones),[1]; [7],16%
COc1ccc2c(c1)OC(c1cccc([N+](=O)[O-])c1)CC2=O (stereo not drawn) [Compound 147],Activity % Inhibition at 12.5 μg/mL (flavanones),[1]; [7],0%
O=c1cc(-c2ccccc2)oc2c(Br)cccc12 [Compound 77],Activity % Inhibition at 12.5 μg/mL (flavones),[1]; [7],66%
O=C(C=Cc1ccccn1)c1ccccn1 [Compound 60],Activity % inhibition at 12.5 μg/mL (chalcone-like compounds),[1]; [7],42%
COc1ccc(/C=C/C(=O)c2ccccc2F)cc1 [Compound 20],Activity % inhibition at 12.5 μg/mL (chalcones),[1]; [7],82%
O=C(/C=C/c1ccccc1)c1ccc(I)cc1O [Compound 45],Activity % inhibition at 12.5 μg/mL (chalcones),[1]; [7],21%
same,inhibition of the growth of Mtb,[1]; [8],21%
COc1c(-c2ccccc2)oc2ccc(Br)cc2c1=O [Compound 89],Activity % Inhibition at 12.5 μg/mL (flavones),[1]; [7],44%
COc1ccc2c(=O)cc(-c3ccccc3)oc2c1 [Compound 117],Activity % Inhibition at 12.5 μg/mL (flavones),[1]; [7],0%
CC(=O)Nc1cccc(/C=C/C(=O)c2ccccc2O)c1 [Compound 17],Activity % inhibition at 12.5 μg/mL (chalcones),[1]; [7],0%
COc1cc(OC)c2c(c1)OC(c1cc(OC)c(OC)c(OC)c1)CC2=O (stereo not drawn) [Compound 144],Activity % Inhibition at 12.5 μg/mL (flavanones),[1]; [7],0%
COc1ccc(C(=O)/C=C/c2cccc(I)c2)c(O)c1 [Compound 43],Activity % inhibition at 12.5 μg/mL (chalcones),[1]; [7],47%
same,inhibition of the growth of Mtb,[1]; [8],47%
COc1ccc(-c2oc3cc(I)ccc3c(=O)c2O)cc1 [Compound 91],Activity % Inhibition at 12.5 μg/mL (flavones),[1]; [7],43%
COc1ccc(-c2oc3ccc(F)cc3c(=O)c2O)cc1 [Compound 94],Activity % Inhibition at 12.5 μg/mL (flavones),[1]; [7],29%
COc1ccc(/C=C/C(=O)c2c(O)cccc2OC)cc1 [Compound 2],Activity % inhibition at 12.5 μg/mL (chalcones),[1]; [7],75%
O=c1c(O)c(-c2ccccc2)oc2ccc(Br)cc12 [Compound 82],Activity % Inhibition at 12.5 μg/mL (flavones),[1]; [7],58%
"COc1ccc(-c2oc3ccccc3c(=O)c2O)cc1 [Compound 88, 4′-methoxyflavonol]",increase in activity compared to 92,"[1]; Mtb H37Rv, 12.5 μg/mL",10%
same,inhibition at 12.5 µg/mL,"[1]; Mtb H37Rv, 12.5 μg/mL, BACTEC 12B medium, read-out: Activity % Inhibition at 12.5 μg/mL (flavones)",48%
O=C(/C=C/c1ccccc1)c1cccc2ccccc12 [Compound 61],Activity % inhibition at 12.5 μg/mL (chalcone-like compounds),[1]; [7],37%
"O=C(/C=C/c1ccccc1)c1ccccc1O [Compound 5, 2′-hydroxychalcone]",inhibition at 12.5 µg/mL,"[1]; read-out: Activity % inhibition at 12.5 μg/mL (chalcones), Mtb H37Rv, 12.5 μg/mL, BACTEC 12B medium",61%
same,inhibition at 12.5 µg/mL,[1]; [6],61%
"COc1ccc([C@@H]2CC(=O)c3c(OC)cc(OC)c([C@H]4C(=O)c5c(OC)cc(OC)cc5O[C@@H]4c4ccc(OC)cc4)c3O2)cc1 [Compound 153, GB-1a hexamethylether]",Activity % Inhibition at 12.5 μg/mL (biflavonoids),[1]; [7],87%
same,inhibition of the growth of Mtb,[1]; [8],87%
COc1ccc(C2CC(=O)c3cc(C(=O)O)ccc3O2)cc1 (stereo not drawn) [Compound 145],Activity % Inhibition at 12.5 μg/mL (flavanones),[1]; [7],0%
